From patent publication US20250051300A1, “GRAM-NEGATIVE SPECIFIC ANTIBIOTICS SPARING EFFECT ON GUT MICROBIOME” (THE BOARD OF TRUSTEES OF THE UNIVERSITY OF ILLINOIS, priority 2021, published 2025) come the findings set out here.

The test system of one experiment is Salmonella typhimurium. Description: MIC, micro-dilution broth method (CLSI). In kind it is cell-based. The settings on record: Salmonella enterica, ATCC 14028 / TYPHIMURIUM; Salmonella typhimurium ATCC14028.
Another experiment deals with E. cloacae ATCC 29893. Description: Resistance frequency, large inoculum method. In kind it is cell-based, Enterobacter cloacae. To be noted: wild-type E. cloacae ATCC 29893, 8×MIC. How it is done:
(§1) Selection of resistant mutants. Resistant mutants were selected using the large inoculum method. Briefly, E. coli BW25113, K. pneumoniae ATCC 27736, or E. cloacae ATCC 29893 (˜1.0×10^7 c.f.u.) was plated on 100-mm plates of Luria Bertani agar containing 8, 16, 32, or 64 μg/mL, lolamycin. For E. coli ΔtolC (JW5503), ˜1.0×10^7 c.f.u. was plated on 100-mm plates of Luria Bertani agar containing 0.063, 0.13, 0.25, 0.5 μg/mL lolamycin. Colonies were visible after incubating at 37° C. for 48 h. Resistant colonies were confirmed by growing colonies in selective media with the same concentration of lolamycin.

The next experiment deals with Bifidobacterium longum. Description: MIC, gut commensal bacteria, micro-dilution broth.
The test system of experiment [1] is Faecalibacterium prausnitzii. In words: MIC, gut commensal bacteria, micro-dilution broth.
Another experiment concerns Bacteroides fragilis. Description: MIC, gut commensal bacteria, micro-dilution broth.
Another experiment has as its system Enterococcus faecalis. Description: MIC, micro-dilution broth method (CLSI). In kind it is cell-based.
Another experiment concerns K. pneumoniae ATCC 27736. In words: Resistance frequency, large inoculum method. In kind it is cell-based, Klebsiella pneumoniae. The settings on record: wild-type K. pneumoniae ATCC 27736, 8×MIC. As for the experimental part: as §1
A further experiment relates to Staphylococcus aureus. Description: MIC, micro-dilution broth method (CLSI). In kind it is cell-based. To be noted: ATCC29213; Staphylococcus aureus ATCC 29213. An excerpt: (§2) Antimicrobial susceptibility assays.
The next experiment deals with Listeria monocytogenes. In words: MIC, micro-dilution broth method (CLSI). In kind it is cell-based. To be noted: ATCC19115; Listeria monocytogenes ATCC 19115.
From the text: as §2

The next experiment deals with Streptococcus pyogenes. In words: MIC, micro-dilution broth method (CLSI). In kind it is cell-based. To be noted: Streptococcus pyogenes Strain 1055.
From the text: as §2

In a further experiment the test system is Enterococcus faecium. Description: MIC, micro-dilution broth method (CLSI). In kind it is cell-based. To be noted: ATCC19434; Enterococcus faecium ATCC 19434.
From the text: as §2

The test system of the next experiment is Acinetobacter baumannii. In words: MIC, micro-dilution broth method (CLSI). In kind it is cell-based.
From the text: as §2

The next experiment deals with Bacillus subtilis. In words: MIC, micro-dilution broth method (CLSI). The settings on record: Bacillus subtilis PY79. In kind it is cell-based.
From the text: as §2

Another experiment concerns Pseudomonas aeruginosa. Description: MIC, micro-dilution broth method (CLSI). In kind it is cell-based.
From the text: as §2

Experiment [2] has as its system Staphylococcus epidermidis. In words: MIC, micro-dilution broth method (CLSI). In kind it is cell-based. The settings on record: Staphylococcus epidermidis NRS101.
From the text: as §2

A further experiment concerns Bacillus cereus. In words: MIC, micro-dilution broth method (CLSI). In kind it is cell-based. The settings on record: ATCC11778; Bacillus cereus ATCC 11778.
From the text: as §2

For another experiment, the system named is Streptococcus pneumoniae. In words: MIC, micro-dilution broth method (CLSI). In kind it is cell-based. To be noted: Streptococcus pneumoniae Strain 1003.
From the text: as §2

The structures appear in SMILES notation. ≈ marks a conversion by molar mass, not a printed value. Like-named read-outs stand apart in the source and are kept apart here.

`Cc1cc(-c2c[nH]nc2-c2cccc(OCc3cccc(C#N)c3)c2)cc(C)n1` [Compound 12, 3-((3-(4-(2,6-dimethylpyridin-4-yl)-1H-pyrazol-3-yl)phenoxy)methyl)benzonitrile]: the MIC is 1 µg/mL (≈ 2.63 µM) against Salmonella typhimurium; more than 128 µg/mL against Bifidobacterium longum (Bifidobacterium longum ATCC BAA-999, BHI-ych, listed as Lolamycin); more than 128 µg/mL in the experiment on Bifidobacterium longum (Bifidobacterium longum, ATCCBAA999); more than 128 µg/mL in experiment [1] (Faecalibacterium prausnitzii ATCC 27768, BHI-ych, listed as Lolamycin); more than 128 µg/mL in [1] (Faecalibacterium prausnitzii, ATCC27768); more than 128 µg/mL in the experiment on Bacteroides fragilis (Bacteroides fragilis ATCC 25285, BHI-ych, listed as Lolamycin). Further, the MIC in the experiment on Bacteroides fragilis (Bacteroides fragilis, ATCC25285) was more than 128 µg/mL; in the experiment on Enterococcus faecalis (Enterococcus faecalis), more than 128 µg/mL; in the experiment on Enterococcus faecalis (Enterococcus faecalis KLE 2341, BHI-ych, listed as Lolamycin) it was more than 128 µg/mL; against Enterococcus faecalis (Enterococcus faecalis, ATCC19433), more than 128 µg/mL; in the experiment on Staphylococcus aureus, more than 128 µg/mL; with Listeria monocytogenes, more than 128 µg/mL. In addition, the minimal inhibitory concentration (MIC) was more than 128 µg/mL against Streptococcus pyogenes; more than 128 µg/mL against Enterococcus faecium; more than 128 µg/mL with Acinetobacter baumannii (ATCC19606, Acinetobacter baumannii ATCC 19606); 32 µg/mL (≈ 84.1 µM) against Acinetobacter baumannii (ATCC19606, Acinetobacter baumannii ATCC 19606 Δ3); more than 128 µg/mL with Bacillus subtilis; more than 128 µg/mL in the experiment with Pseudomonas aeruginosa (Pseudomonas aeruginosa PAO1, read-out: MIC). The minimum inhibitory concentration (MIC) (against Pseudomonas aeruginosa (Pseudomonas aeruginosa PAO1 Δ6); in [2]; in the experiment with Bacillus cereus; in the experiment on Streptococcus pneumoniae) was more than 128 µg/mL throughout. Besides, the resistance frequency is recorded as 5.2×10^−7 in the experiment with E. cloacae ATCC 29893 and 1.2×10^−8 in the experiment with K. pneumoniae ATCC 27736.
